Measurements as given in patent US20080200655A1, “Protein Formulations Containing Sorbitol” (Wyeth, priority 2007, published 2008).

How the values were obtained:
[1] = test system: four monoclonal antibodies (mAb2, mAb3, mAb4, mAb5), a cytokine and a fusion protein; experiment: Five freeze-thaw cycles of six proteins in 250 mM mannitol or sorbitol, HMW species formation; format: physicochemical; settings: each protein 1 mg/ml, 10 mM histidine pH 6.0, 250 mM polyol
Procedure: Six different proteins including four different monoclonal antibodies (referred to as mAb2, mAb3, mAb4, and mAb5), a cytokine and a fusion protein were dialyzed into 10 mM histidine, pH 6.0, and 250 mM mannitol or sorbitol. The final concentration of each protein was 1 mg/ml. The formulations were then subject to five cycles of freeze-thaw as described above, and monitored for HMW species formation.

[2] = cited from earlier work
MAB-002 = experiment: Five freeze-thaw cycles of MAB-002 in formulations with different polyols, HMW species formation; format: physicochemical; settings: MAB-002 5 mg/ml, 10 mM histidine pH 6.0, various polyol concentrations
Procedure: This experiment compared mannitol to other polyols with different maximum solubilities with respect to their abilities to induce aggregation during freeze-thaw. A monoclonal antibody referred to as MAB-002 was dialyzed into different liquid formulations containing mannitol, galactitol, or sorbitol, respectively, at various concentrations. Each formulation also contained 10 mM histidine, pH 6.0. The final concentration of MAB-002 in each of the liquid formulations was 5 mg/ml. Each formulation was then subject to five cycles of freeze-thaw, and monitored for HMW species formation. Changes in the percentage of HMW species was plotted against the polyol concentrations in FIG. 3.

[3] = Sub ambient DSC scan of formulation during cooling and warming; format: physicochemical; settings: formulation containing the polyol

SMILES | Protein aggregation (HMW species formation) [1] | Maximum solubility [2] | Induction of aggregation (change in percentage of HMW species) (MAB-002) | Crystallization during cooling and warming [3]
OC[C@@H](O)[C@@H](O)[C@H](O)[C@H](O)CO [mannitol] | considerably more protein aggregation | 1000 mM | – | –
OC[C@@H](O)[C@@H](O)[C@H](O)[C@@H](O)CO [sorbitol] | suppresses aggregation of multiple proteins | 4500 mM | did not induce aggregation significantly compared to mannitol | no crystallization occurred
OC[C@@H](O)[C@H](O)[C@H](O)[C@@H](O)CO [galactitol] | – | 180 mM | induced aggregation at low concentrations and at a faster rate compared to mannitol | –
